Test results: patent US20080317723A1, “LYMPHATIC ENDOTHELIAL CELLS MATERIALS AND METHODS” (VEGENICS LIMITED, priority 2001, published 2008)

Tests used:
VEGFR-1/EpoR = molecular target: T1, VEGFR-1/EpoR (Homo sapiens, UniProt P17948); test: Ba/F3 bioassay, viability (MTT) of VEGFR-1/EpoR cells; type: cell-based; conditions: FIG. 1A
T1 construct: a chimeric receptor containing the extracellular domain of human VEGFR-1, VEGFR-2 or VEGFR-3 fused with the transmembrane and cytoplasmic domains; expressed in transfected cells
T1 sequence (P17948 27-758 limits assumed): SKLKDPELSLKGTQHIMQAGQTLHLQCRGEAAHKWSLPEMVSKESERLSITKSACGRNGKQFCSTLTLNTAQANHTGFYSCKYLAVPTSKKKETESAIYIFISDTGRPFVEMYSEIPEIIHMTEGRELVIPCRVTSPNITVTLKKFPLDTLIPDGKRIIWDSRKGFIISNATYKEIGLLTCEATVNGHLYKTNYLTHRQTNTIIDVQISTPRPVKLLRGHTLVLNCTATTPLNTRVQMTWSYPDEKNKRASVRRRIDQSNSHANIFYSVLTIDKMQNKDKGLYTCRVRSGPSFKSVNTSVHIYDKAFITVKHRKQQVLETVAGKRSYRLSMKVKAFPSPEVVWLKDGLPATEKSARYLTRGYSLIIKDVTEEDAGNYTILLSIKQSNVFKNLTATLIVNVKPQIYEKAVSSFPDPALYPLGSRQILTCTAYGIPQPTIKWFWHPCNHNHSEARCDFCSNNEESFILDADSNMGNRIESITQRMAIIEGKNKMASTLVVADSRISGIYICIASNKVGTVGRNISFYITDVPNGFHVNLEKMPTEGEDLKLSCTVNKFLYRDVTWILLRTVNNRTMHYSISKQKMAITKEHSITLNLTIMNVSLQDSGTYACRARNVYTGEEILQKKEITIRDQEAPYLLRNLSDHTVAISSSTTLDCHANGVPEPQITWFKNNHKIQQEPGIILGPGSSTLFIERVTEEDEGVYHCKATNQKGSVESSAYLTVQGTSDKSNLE
Protocol: FIG. 1A-FIG. 1C. Analysis of the receptor-specificities of different VEGFs using the Ba/F3 bioassay. Measurement of the viability of Ba/F3 cells expressing the chimeric receptors VEGFR-1/EpoR (FIG. 1A), VEGFR-2/EpoR (FIG. 1B) or VEGFR-3/EpoR (FIG. 1C) in the presence of different VEGFs at indicated concentrations. Cell viability was determined using the MTT assay. Data represent the mean values from triplicate assays (mean±s.d.). FIG. 1D-FIG. 1G. Biosensor analysis of the interaction of VEGF-C (FIG. 1D, FIG. 1E) and VEGF-C156S (FIG. 1F, FIG. 1G) with VEGFR-3 (FIG. 1D, FIG. 1F) and VEGFR-2 (FIG. 1E, FIG. 1G). Chimeric receptor proteins were immobilized onto a carboxymethylated dextran surface. Growth factors were injected over the surface at a flow rate of 20 μl/min at the indicated concentrations. The sensorgrams shown have been subtracted with the corresponding signal obtained when the same sample was passed over a blank control channel.
Bioassay for VEGFR stimulation. […]
VEGF is an endothelial cell mitogen which has been also shown to protect endothelial cells from starvation and TNF-a induced apoptosis via activation of VEGFR-2 (Gerber et al, J. Biol. Chem., 273:30336-30343, 1998; Spyridopoulos et al., J. Mol. Cell. Cardiol., 29:1321-1330, 1997). […] The specificities of the growth factors used were determined using a cell survival bioassay. […]

CREB = CREB Ser133 phosphorylation in HMVE cells, Western blot; type: cell-based, human; conditions: HMVECs
Protocol: Western blot analysis. Endothelial cells were cultured on 35 mm dishes to near confluence, starved for 24 h in serum free medium and stimulated as indicated. Wortmannin ([…]), LY294002 ([…]), PD98059 (10-25 μM) or GF109203X (2.5-5 μM) were added 1-3 h before stimulation, where indicated. DMSO, into which the inhibitors were dissolved, was used as a control. After the stimulation, the cells were lysed in lysis buffer (50 mM HEPES, pH 7.5, 150 mM NaCl, 10 mM EDTA, 100 mM NaF, 1% TritonX-100 supplemented with 2 mM Na3VO4, 0.5 mM PMSF, 100 U/ml approtinin and 10 μg/ml leupeptin). Clarified lysates were separated by SDS-PAGE, transferred to nitrocellulose and immunoblotted using the phosphospecific antibodies for Akt-Ser473, Akt-Thr308, p42/44 MAPK-Thr202/Tyr204 or CREB-Ser133. The bound antibodies were detected using horseradish peroxidase conjugated secondary antibodies and enhanced chemiluminescence detection system. The blots were stripped and reprobed with antibodies against Akt, MAPK or CREB for quantification by reading the optical densities of the signals with Multi-Analyst 2.0.1 program (Bio-Rad).
The p42/p44 MAPK activation was detected by Western blotting using phospho-Thr202/Tyr204-MAPK specific antibodies and CREB phosphorylation using phospho-Ser133 specific antibodies. The growth factor concentrations used were: VEGF 10 ng/ml, VEGF-C 100 ng/ml and VEGF-C156S 500 ng/ml. […] Effects of inhibition of protein kinase C by GF109203X, MEK1 by PD98059 and PI-3 kinase by LY294002 on p42/p44 MAPK Thr202/Tyr204 phosphorylation, CREB Ser133 phosphorylation and Akt Ser473 phosphorylation in HMVE cells. The growth factor concentrations used were: VEGF 1 ng/ml, VEGF-C 10 ng/ml and VEGF-C156S 500 ng/ml

VEGF
survival of VEGFR-1/EpoR cells (VEGFR-1/EpoR): able to induce the survival of VEGFR-1/EpoR cells
CREB phosphorylation on growth factor stimulation (CREB): detected
